According to patent US20150299188A1, “HETEROCYCLIC COMPOUND” (priority 2012, published 2015):

Test system: FLAP (5-lipoxygenase activating protein)
Test: In vitro binding test: displacement of [3H]-7-chloro-3-(5-((3-fluoropyridin-2-yl)methoxy)-2-methylphenyl)-3,4-dihydroquinazolin-2(1H)-one from Sf9 microsome fractions
Design: species or system human and mouse
Settings: Sf9 microsome fractions expressing FLAP; 100% = radioligand binding with 10 μM sodium 3-(3-(tert-butylsulfanyl)-1-(4-chlorobenzyl)-5-isopropyl-1H-indol-2-yl)-2,2-dimethylpropanoate, 0% = DMSO; test compound concentration not given
Outline: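 Sf9 microsomes expressing human or mouse FLAP (2 μg/mL) preincubated with compound 10 min at room temperature, then 120 nM tritiated quinazolinone ligand added for 60 min; buffer 100 mM Tris-HCl pH 7.5 with NaCl, EDTA, DTT, glycerol, Tween20. Bound ligand filtered and counted by scintillation; 10 μM indole propanoate defines 100% inhibition, DMSO 0%.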

Row | SMILES | inhibitory rate (%)
1 | CC(C)(O)c1ccc2c(c1)NC(=O)N(c1cc(OCc3c(F)cccc3F)ccc1CCc1ccccc1)C2 [Example 260, 3-(5-((2,6-difluorobenzyl)oxy)-2-(2-phenylethyl)phenyl)-7-(2-hydroxypropan-2-yl)-3,4-dihydroquinazolin-2(1H)-one] | 106%
2 | Cn1cc2c(n1)CN(c1cc(OCc3ncccc3F)ccc1Br)C(=O)N2 [Example 264, 6-(2-bromo-5-((3-fluoropyridin-2-yl)methoxy)phenyl)-2-methyl-2,4,6,7-tetrahydro-5H-pyrazolo[4,3-d]pyrimidin-5-one] | 101%
3 | Cc1ccc(OCc2ncccc2Cl)cc1N1Cc2nn(C)cc2NC1=O [Example 265, 6-(5-((3-chloropyridin-2-yl)methoxy)-2-methylphenyl)-2-methyl-2,4,6,7-tetrahydro-5H-pyrazolo[4,3-d]pyrimidin-5-one] | 82%
4 | CCCN(C)C(=O)c1ccc2c(c1)NC(=O)N(c1cc(OCc3ncccc3F)ccc1C)C2 [Example 266, 3-(5-((3-fluoropyridin-2-yl)methoxy)-2-methylphenyl)-N-methyl-2-oxo-N-propyl-1,2,3,4-tetrahydroquinazoline-7-carboxamide] | 105%
5 | O=C1Nc2ccccc2CN1c1cc(OCc2ncccn2)ccc1Br [Example 267, 3-(2-bromo-5-(pyrimidin-2-ylmethoxy)phenyl)-3,4-dihydroquinazolin-2(1H)-one] | 100%
6 | Cc1ccc(OCc2ncccc2F)cc1N1Cc2ccc(C(=O)Nc3ccccc3)cc2NC1=O [Example 273, 3-(5-((3-fluoropyridin-2-yl)methoxy)-2-methylphenyl)-2-oxo-N-phenyl-1,2,3,4-tetrahydroquinazoline-7-carboxamide] | 100%
7 | Cc1ccc(OCc2ncccc2F)cc1N1Cc2ccc(C(F)(F)F)cc2NC1=O [Example 275, 3-(5-((3-fluoropyridin-2-yl)methoxy)-2-methylphenyl)-7-(trifluoromethyl)-3,4-dihydroquinazolin-2(1H)-one] | 101%
8 | O=C1Nc2cccc(Cl)c2CN1c1cc(OCc2ncccc2F)ccc1Br [Example 277, 3-(2-bromo-5-((3-fluoropyridin-2-yl)methoxy)phenyl)-5-chloro-3,4-dihydroquinazolin-2(1H)-one] | 99%
9 | Cc1ccc(OCc2ncccc2F)cc1N1Cc2c(ccnc2Cl)NC1=O [Example 279, 5-chloro-3-(5-((3-fluoropyridin-2-yl)methoxy)-2-methylphenyl)-3,4-dihydropyrido[4,3-d]pyrimidin-2(1H)-one] | 103%
10 | O=C(CCc1ccc(OCc2ncccc2F)cc1N1Cc2ccccc2NC1=O)NC1CC1 [Example 280, N-cyclopropyl-3-(4-((3-fluoropyridin-2-yl)methoxy)-2-(2-oxo-1,4-dihydroquinazolin-3(2H)-yl)phenyl)propanamide] | 62%
11 | Cc1ccc(OCc2ncccc2F)cc1N1Cc2c(Cl)cccc2N(CC2CC2)C1=O [Example 284, 5-chloro-1-(cyclopropylmethyl)-3-(5-((3-fluoropyridin-2-yl)methoxy)-2-methylphenyl)-3,4-dihydroquinazolin-2(1H)-one] | 105%
12 | Cc1ccc(OCc2ncccc2F)cc1N1Cc2c(Cl)cccc2N(CC(N)=O)C1=O [Example 286, 2-(5-chloro-3-(5-((3-fluoropyridin-2-yl)methoxy)-2-methylphenyl)-2-oxo-3,4-dihydroquinazolin-1(2H)-yl)acetamide] | 112%
13 | Cc1ccc(OCc2ncccc2F)cc1N1Cc2ccc(C(=O)N3CCOCC3)cc2NC1=O [Example 288, 3-(5-((3-fluoropyridin-2-yl)methoxy)-2-methylphenyl)-7-(morpholin-4-ylcarbonyl)-3,4-dihydroquinazolin-2(1H)-one] | 104%
14 | CC(C)(O)c1ccc2c(c1)NC(=O)N(c1cc(OCc3c(F)cccc3F)ccc1CC1CCCCC1)C2 [Example 289, 3-(2-(cyclohexylmethyl)-5-((2,6-difluorobenzyl)oxy)phenyl)-7-(2-hydroxypropan-2-yl)-3,4-dihydroquinazolin-2(1H)-one] | 80%
15 | Cc1ccc(OCc2ncccc2F)cc1N1Cc2c(Cl)cc(C(=O)O)cc2NC1=O [Example 292, 5-chloro-3-(5-((3-fluoropyridin-2-yl)methoxy)-2-methylphenyl)-2-oxo-1,2,3,4-tetrahydroquinazoline-7-carboxylic acid] | 107%
16 | CC(C)(C)Cc1ccc(OCc2c(F)cccc2F)cc1N1Cc2ccc(C(C)(C)O)cc2NC1=O [Example 293, 3-(5-((2,6-difluorobenzyl)oxy)-2-(2,2-dimethylpropyl)phenyl)-7-(2-hydroxypropan-2-yl)-3,4-dihydroquinazolin-2(1H)-one] | 84%

Now from value to molecule:

Row | inhibitory rate (%) | SMILES
17 | 92% | Cc1ccc(OCc2ncccc2F)cc1N1Cc2ccncc2NC1=O [Example 259, 3-(5-((3-fluoropyridin-2-yl)methoxy)-2-methylphenyl)-3,4-dihydropyrido[3,4-d]pyrimidin-2(1H)-one]
18 | 116% | Cc1ccc(OCc2ncccc2F)cc1N1Cc2ccc(C(=O)NC3CC3)cc2NC1=O [Example 261, N-cyclopropyl-3-(5-((3-fluoropyridin-2-yl)methoxy)-2-methylphenyl)-2-oxo-1,2,3,4-tetrahydroquinazoline-7-carboxamide]
19 | 97% | Cc1ccc(OCc2ncccc2F)cc1N1Cc2nn(CC(F)(F)F)cc2NC1=O [Example 263, 6-(5-((3-fluoropyridin-2-yl)methoxy)-2-methylphenyl)-2-(2,2,2-trifluoroethyl)-2,4,6,7-tetrahydro-5H-pyrazolo[4,3-d]pyrimidin-5-one]
20 | 83% | Cc1ccc(OCc2ncccc2F)cc1N1Cc2cnccc2NC1=O [Example 268, 3-(5-((3-fluoropyridin-2-yl)methoxy)-2-methylphenyl)-3,4-dihydropyrido[4,3-d]pyrimidin-2(1H)-one]
21 | 111% | Cc1ccc(OCc2ncccc2F)cc1N1Cc2c(Cl)cccc2N(C)C1=O [Example 269, 5-chloro-3-(5-((3-fluoropyridin-2-yl)methoxy)-2-methylphenyl)-1-methyl-3,4-dihydroquinazolin-2(1H)-one]
22 | 104% | Cc1ccc(OCc2ncccc2F)cc1N1Cc2ccc(C(=O)NC(C)C)cc2NC1=O [Example 270, 3-(5-((3-fluoropyridin-2-yl)methoxy)-2-methylphenyl)-N-isopropyl-2-oxo-1,2,3,4-tetrahydroquinazoline-7-carboxamide]
23 | 100% | Cc1ccc(OCc2ncccc2F)cc1N1Cc2ccc(C(=O)Nc3ccccn3)cc2NC1=O [Example 271, 3-(5-((3-fluoropyridin-2-yl)methoxy)-2-methylphenyl)-2-oxo-N-(pyridin-2-yl)-1,2,3,4-tetrahydroquinazoline-7-carboxamide]
24 | 95% | Cc1ccc(OCc2ncccc2F)cc1N1Cc2ncccc2NC1=O [Example 272, 3-(5-((3-fluoropyridin-2-yl)methoxy)-2-methylphenyl)-3,4-dihydropyrido[3,2-d]pyrimidin-2(1H)-one]
25 | 106% | Cc1ccc(OCc2ncccn2)cc1N1Cc2c(Cl)cccc2NC1=O [Example 274, 5-chloro-3-(2-methyl-5-(pyrimidin-2-ylmethoxy)phenyl)-3,4-dihydroquinazolin-2(1H)-one]
26 | 101% | Cc1ccc(OCc2ncccc2F)cc1N1Cc2nn(CC3CC3)cc2NC1=O [Example 276, 2-(cyclopropylmethyl)-6-(5-((3-fluoropyridin-2-yl)methoxy)-2-methylphenyl)-2,4,6,7-tetrahydro-5H-pyrazolo[4,3-d]pyrimidin-5-one]
27 | 96% | N#Cc1ccc(OCc2ncccc2F)cc1N1Cc2c(Cl)cccc2NC1=O [Example 278, 2-(5-chloro-2-oxo-1,4-dihydroquinazolin-3(2H)-yl)-4-((3-fluoropyridin-2-yl)methoxy)benzonitrile]
28 | 107% | Cc1ccc(OCc2ncccc2F)cc1N1Cc2c(F)cccc2NC1=O [Example 281, 5-fluoro-3-(5-((3-fluoropyridin-2-yl)methoxy)-2-methylphenyl)-3,4-dihydroquinazolin-2(1H)-one]
29 | 98% | Cc1ccc(OCc2ncccc2F)cc1N1Cc2c(Br)cccc2NC1=O [Example 282, 5-bromo-3-(5-((3-fluoropyridin-2-yl)methoxy)-2-methylphenyl)-3,4-dihydroquinazolin-2(1H)-one]
30 | 100% | COCCN1C(=O)N(c2cc(OCc3ncccc3F)ccc2C)Cc2c(Cl)cccc21 [Example 283, 5-chloro-3-(5-((3-fluoropyridin-2-yl)methoxy)-2-methylphenyl)-1-(2-methoxyethyl)-3,4-dihydroquinazolin-2(1H)-one]
31 | 102% | Cc1ccc(OCc2ncccc2F)cc1N1Cc2c(Cl)cccc2N(CC(=O)O)C1=O [Example 285, (5-chloro-3-(5-((3-fluoropyridin-2-yl)methoxy)-2-methylphenyl)-2-oxo-3,4-dihydroquinazolin-1(2H)-yl)acetic acid]
32 | 95% | O=C1Nc2cccc(Cl)c2CN1c1cc(OCc2ncccc2F)c(F)cc1Cl [Example 287, 5-chloro-3-(2-chloro-4-fluoro-5-((3-fluoropyridin-2-yl)methoxy)phenyl)-3,4-dihydroquinazolin-2(1H)-one]
33 | 97% | O=C1Nc2cc(CO)ccc2CN1c1cc(OCc2c(F)cccc2F)ccc1CC1CCCCC1 [Example 290, 3-(2-(cyclohexylmethyl)-5-((2,6-difluorobenzyl)oxy)phenyl)-7-(hydroxymethyl)-3,4-dihydroquinazolin-2(1H)-one]
34 | 94% | Cc1ccc(OCc2ncccc2F)cc1N1Cc2c(Cl)cccc2N(C)C1=O [Example 291, 5-chloro-3-(5-((3-fluoropyridin-2-yl)methoxy)-2-methylphenyl)-1-methyl-3,4-dihydroquinazolin-2(1H)-one]
